Assay [1] has as its system E. coli CysC (JM81A complemented with M. tuberculosis CysC). In words: microbe, parasite or virus in culture. In kind it is cell-based. As to conditions: Escherichia coli, read-out: percent inhibition of growth.
Assay [2] concerns E. coli CysH (JM81A complemented with M. smegmatis CysH). In words: microbe, parasite or virus in culture. In kind it is cell-based. The conditions noted are these: Escherichia coli; E. coli CysH strain; 25 μg/mL of compound; read-out: percent inhibition of growth.
Assay [3] deals with E. coli BioB (JM81A control strain containing the BioB gene). The assay can be described thus: microbe, parasite or virus in culture. In kind it is cell-based. As to conditions: Escherichia coli, 25 μg/mL of compound, read-out: percent inhibition of growth.
Assay [4] concerns the target T1, M. tuberculosis CysC (APS kinase) (Mycobacterium tuberculosis, UniProt P9WNM5).
T1 construct: made in house; host or cells: E. coli BL21 STAR, plasmid pET28b(+)CysC
T1 sequence (P9WNM5 442-614 limits assumed): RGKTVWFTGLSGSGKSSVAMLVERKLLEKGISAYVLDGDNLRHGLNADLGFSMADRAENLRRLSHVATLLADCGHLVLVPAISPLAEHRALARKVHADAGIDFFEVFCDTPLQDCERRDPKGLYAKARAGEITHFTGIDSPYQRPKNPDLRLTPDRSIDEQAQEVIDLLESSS
In kind it is biochemical.

The next assay concerns the target APS kinase of E. coli (Escherichia coli, UniProt P0A6J1). The conditions noted are these: cited from earlier work.

By inhibition is commonly meant the relative decrease from the control value, in per cent. What is called Km is the substrate concentration at which the rate is half of its maximum.

Structures are written as SMILES.

Sequence of APS kinase of E. coli (P0A6J1 whole entry): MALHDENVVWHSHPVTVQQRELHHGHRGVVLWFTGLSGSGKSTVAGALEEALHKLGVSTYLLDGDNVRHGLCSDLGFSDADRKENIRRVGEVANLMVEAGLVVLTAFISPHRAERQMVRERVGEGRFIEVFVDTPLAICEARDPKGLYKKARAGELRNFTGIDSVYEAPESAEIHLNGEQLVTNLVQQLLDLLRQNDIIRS

For the compound `O=C(O)c1ccccc1N[C@H](c1ccccc1)c1ccc2cccnc2c1O`, the inhibition at 25 µg/mL is 93% in assay [1], 25% in assay [2] and 1% in assay [3].
As to `O=C1Oc2ccccc2C(=O)/C1=C/Nc1ncc(-c2ccc(O)c(O)c2)s1`, the inhibition at 25 µg/mL in assay [1] came to 78%; in assay [2], 90%; in assay [3], 0%.
Turning to `Nc1ncnc2c1ncn2[C@@H]1O[C@H](COP(=O)(O)OS(=O)(=O)O)[C@@H](O)[C@H]1O` [APS, adenylyl phosphosulfate], in assay [4], the VmaxE0 was found to be 1.05 s⁻¹, the “VmaxE0 (two-fold decrease)” value was determined as 611 mM⁻¹ s⁻¹ and the “apparent VmaxE0” value amounted to 0.85 ± 0.04 s⁻¹. The Km on APS kinase of E. coli is 0.25 µM.
Take `[N-]=[N+]=Nc1ccc(S(=O)(=O)Nc2ncccn2)cc1`: the inhibition at 25 µg/mL amounted to 95% in assay [1], 0% in assay [2] and 85% in assay [3].
For `Nc1ncnc2c1ncn2[C@@H]1O[C@H](COP(=O)(O)OP(=O)(O)OP(=O)(O)O)[C@@H](O)[C@H]1O` [ATP], the “apparent VmaxE0” value in assay [4] is 0.95 ± 0.03 s⁻¹. For the same compound, the Km in assay [4] (read-out: apparent Km) was found to be 910 ± 100 µM.
For the compound `CC(=N/Nc1nc2ccccc2s1)/N=N/c1cccc(O)c1`, the inhibition at 25 µg/mL was 47% in assay [1], 0% in assay [2] and 0% in assay [3].
For `CCN(CC)CC[n+]1ccc2c(C)c3[nH]c4ccccc4c3c(C)c2c1`, the inhibition at 25 µg/mL came out at 98% in assay [1], 97% in assay [2] and 0% in assay [3].
Taken in the same sequence, the figures for `Nc1ccc(S(=O)(=O)Nc2cnc3ccccc3n2)cc1` were 94%, 29% and 77%.

Source of the values: patent US6863895B2, “Mycobacterial sulfation pathway proteins and methods of use thereof” (priority 2001, dated 2005).
